# In article PMC5065237, “Investigation into the Mode of Phosphate Activation in the 4-Hydroxy-4-Methyl-2-Oxoglutarate/4-Carboxy-4-Hydroxy-2-Oxoadipate Aldolase from Pseudomonas putida F1” (PLoS ONE, 2016):
# Columns and labels:
# [1] = target: T1, HMG/CHA aldolase (Pseudomonas putida, UniProt A5W059); assay: aldol cleavage, LDH-coupled NADH oxidation at […] nm; format: biochemical; settings: substrate inhibition constant, 1 mM MgCl2, 0.1 M HEPES pH 8.0, 25 °C, racemic substrate
# T1 construct: gene Pput_1361; recombinant from pT7-7, expressed in E. coli; chelex-treated apo-enzyme reconstituted with MgCl2
# [2] = target: T1, HMG/CHA aldolase; assay: decarboxylation, LDH-coupled NADH oxidation at […] nm; format: biochemical; settings: substrate inhibition constant, 1 mM MgCl2, 0.1 M HEPES pH 8.0, 25 °C
# T1 sequence (A5W059 whole entry): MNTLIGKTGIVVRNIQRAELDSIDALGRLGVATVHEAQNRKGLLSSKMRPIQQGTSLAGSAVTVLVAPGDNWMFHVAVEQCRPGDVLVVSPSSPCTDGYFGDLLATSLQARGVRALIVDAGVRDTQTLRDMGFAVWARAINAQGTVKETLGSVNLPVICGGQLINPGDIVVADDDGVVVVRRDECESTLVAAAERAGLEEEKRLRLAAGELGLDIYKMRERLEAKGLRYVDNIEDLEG
compound,measurement,setting,value
CC(O)(CC(=O)C(=O)O)C(=O)O (racemic) [HMG],Without Pi / Ksi,[1],1.80 ± 0.091 mM
O=C(O)CC(=O)C(=O)O [OAA],Without Pi / Ksi,[2],0.360 ± 0.049 mM
